Experimental findings from patent EP3753932A1, “SUBSTITUTED BICYCLIC DERIVATIVES HAVING MULTIMODAL ACTIVITY AGAINST PAIN” (priority 2019, dated 2020) are described below.

Each structure is given as a SMILES string. Where two headings read alike, the source gives them in different places.

In test [1] the target is Human α2δ-1 subunit of Cav2.2 calcium channel (Homo sapiens, UniProt P54289). Kind of test: Human α2δ-1 subunit of Cav2.2 calcium channel assay ([3H]-Gabapentin binding). The protocol: Human α2δ-1 subunit of Cav2.2 calcium channel assay
Human α2δ-1 enriched membranes (2.5 µg) were incubated with 15 nM of radiolabeled [3H]-Gabapentin in assay buffer containing Hepes-KOH 10mM, pH 7.4. NSB (non specific binding) was measured by adding 10 µM pregabalin. The binding of the test compound was measured at either one concentration (% inhibition at 1 or 10 µM) or five different concentrations to determine affinity values (Ki). After 60 min incubation at 27 °C, binding reaction was terminated by filtering through Multiscreen GF/C (Millipore) presoaked in 0.5 % polyethyleneimine in Vacuum Manifold Station, followed by 3 washes with ice-cold filtration buffer containing 50 mM Tris-HCl, pH 7.4. Filter plates were dried at 60 °C for 1 hour and 30 µl of scintillation cocktail were added to each well before radioactivity reading. Readings were performed in a Trilux 1450 Microbeta radioactive counter (Perkin Elmer).

In test [2] the target is T1, Human µ-opioid receptor (Homo sapiens, UniProt P35372).
T1 construct: expressed in transfected cells; host or cells: CHO-K1
Description: Human µ-opioid receptor radioligand assay ([3H]-DAMGO). The format is binding. The protocol: Human µ-opioid receptor radioligand assay
Transfected CHO-K1 cell membranes (20 µg) were incubated with [^3H]-DAMGO (1 nM) in assay buffer containing Tris-HCl 50 mM, MgCl2 5 mM at pH 7.4. NBS (non-specific binding) was measured by adding 10 µM Naloxone. The binding of the test compound was measured at either one concentration (% inhibition at 1 or 10 µM) or five different concentrations to determine affinity values (Ki). Plates were incubated at 27 °C for 60 min. After the incubation period, the reaction mixture was then transferred to MultiScreen HTS, FC plates (Millipore), filtered and plates were washed 3 times with ice-cold 10 mM Tris-HCl (pH 7.4). Filters were dried and counted at approximately 40% efficiency in a MicroBeta scintillation counter (Perkin-Elmer) using EcoScint liquid scintillation cocktail.

Setting [3] is: human α2δ-1 enriched membranes, [3H]-Gabapentin 15 nM, read-out: α2δ-1 binding.
The mark [4] stands for this setting: transfected CHO-K1 cell membranes, [3H]-DAMGO 1 nM, read-out: µ-binding.

T1 sequence (P35372 whole entry): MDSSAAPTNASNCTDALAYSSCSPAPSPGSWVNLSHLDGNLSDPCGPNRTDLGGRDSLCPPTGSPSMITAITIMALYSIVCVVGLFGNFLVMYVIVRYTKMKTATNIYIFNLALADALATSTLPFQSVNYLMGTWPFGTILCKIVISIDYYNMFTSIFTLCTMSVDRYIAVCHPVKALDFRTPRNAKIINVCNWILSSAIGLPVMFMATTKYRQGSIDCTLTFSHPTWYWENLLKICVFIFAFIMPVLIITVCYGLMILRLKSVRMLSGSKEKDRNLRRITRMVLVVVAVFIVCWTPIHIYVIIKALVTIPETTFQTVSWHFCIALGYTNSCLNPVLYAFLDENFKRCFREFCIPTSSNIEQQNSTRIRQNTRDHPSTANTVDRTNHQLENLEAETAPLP
Sequence of Human α2δ-1 subunit of Cav2.2 calcium channel (P54289 25-1103): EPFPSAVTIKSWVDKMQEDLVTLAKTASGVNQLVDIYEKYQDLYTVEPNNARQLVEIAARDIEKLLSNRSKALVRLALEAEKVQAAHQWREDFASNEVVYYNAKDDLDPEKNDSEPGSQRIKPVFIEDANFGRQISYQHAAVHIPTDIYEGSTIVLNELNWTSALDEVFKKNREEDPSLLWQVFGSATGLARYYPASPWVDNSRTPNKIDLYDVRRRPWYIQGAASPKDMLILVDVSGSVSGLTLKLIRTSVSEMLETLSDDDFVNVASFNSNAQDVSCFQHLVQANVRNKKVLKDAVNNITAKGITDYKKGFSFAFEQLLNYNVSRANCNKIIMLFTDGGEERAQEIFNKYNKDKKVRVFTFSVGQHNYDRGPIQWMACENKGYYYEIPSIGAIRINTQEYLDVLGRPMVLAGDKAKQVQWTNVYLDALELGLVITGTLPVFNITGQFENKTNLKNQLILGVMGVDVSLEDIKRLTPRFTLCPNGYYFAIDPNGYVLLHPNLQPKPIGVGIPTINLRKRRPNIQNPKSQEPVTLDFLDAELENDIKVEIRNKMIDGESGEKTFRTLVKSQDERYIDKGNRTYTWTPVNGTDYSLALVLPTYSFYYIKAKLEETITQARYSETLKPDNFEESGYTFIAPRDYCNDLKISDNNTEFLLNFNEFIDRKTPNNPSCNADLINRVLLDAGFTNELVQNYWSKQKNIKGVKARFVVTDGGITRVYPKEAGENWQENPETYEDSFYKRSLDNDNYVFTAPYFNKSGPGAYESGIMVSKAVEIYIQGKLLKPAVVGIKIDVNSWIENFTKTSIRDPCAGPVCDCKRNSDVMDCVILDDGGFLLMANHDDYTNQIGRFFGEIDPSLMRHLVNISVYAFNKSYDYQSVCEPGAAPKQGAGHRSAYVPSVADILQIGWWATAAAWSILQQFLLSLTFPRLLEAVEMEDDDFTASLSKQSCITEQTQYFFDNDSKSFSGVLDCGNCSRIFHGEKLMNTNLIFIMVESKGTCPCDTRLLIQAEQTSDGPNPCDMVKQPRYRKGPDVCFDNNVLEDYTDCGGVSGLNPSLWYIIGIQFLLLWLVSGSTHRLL

Turning to `CCC[C@@H](c1cc2ccc(CN3CCC(c4cccc(O)c4)(N(C)C)CC3)cc2nc1CC)N1C[C@@H](C)N[C@@H](C)C1` [Example 24, 3-(4-(Dimethylamino)-1-((3-((S)-1-((3S,5R)-3,5-dimethylpiperazin-1-yl)butyl)-2-ethylquinolin-7-yl)methyl)piperidin-4-yl)phenol], the results for the Ki in test [1] (setting [3]) and in test [2] were 500 to 5000 nM and < 100 nM, respectively.
For the compound `CCCC(c1ncc2cc(N3CCC(c4cccc(O)c4)(N(C)C)CC3)ccc2n1)N1C[C@@H](C)N[C@@H](C)C1` (stereo partly drawn) [Example 25, 3-(4-(Dimethylamino)-1-(2-(1-((3S,5R)-3,5-dimethylpiperazin-1-yl)butyl)quinazolin-6-yl)piperidin-4-yl)phenol], the Ki is > 5000 nM in test [1] and < 100 nM in test [2] (setting [4]).
For the compound `CCC[C@H](c1ncc2cc(N3CCC(c4cccc(O)c4)(N(C)C)CC3)ccc2n1)N1C[C@@H](C)N[C@@H](C)C1` [Example 26, 3-(4-(Dimethylamino)-1-(2-((R)-1-((3S,5R)-3,5-dimethylpiperazin-1-yl)butyl)quinazolin-6-yl)piperidin-4-yl)phenol], the Ki in test [1] is > 5000 nM; in test [2] (setting [4]), < 100 nM.
For `CCC[C@@H](c1ncc2cc(N3CCC(c4cccc(O)c4)(N(C)C)CC3)ccc2n1)N1C[C@@H](C)N[C@@H](C)C1` [Example 27, 3-(4-(Dimethylamino)-1-(2-((S)-1-((3S,5R)-3,5-dimethylpiperazin-1-yl)butyl)quinazolin-6-yl)piperidin-4-yl)phenol], the values for the Ki in test [1] and in test [2] (setting [4]) were > 5000 nM and < 100 nM, respectively.
With `CCCC(c1ncc2cc(CN3CCC(c4cccc(O)c4)(N(C)C)CC3)ccc2n1)N1C[C@@H](C)N[C@@H](C)C1` (stereo partly drawn) [Example 28, 3-(4-(Dimethylamino)-1-((2-(1-((3S,5R)-3,5-dimethylpiperazin-1-yl)butyl)quinazolin-6-yl)methyl)piperidin-4-yl)phenol], the Ki in test [1] (setting [3]) is > 5000 nM; in test [2] it was < 100 nM.
For `CCC[C@H](c1ncc2cc(CN3CCC(c4cccc(O)c4)(N(C)C)CC3)ccc2n1)N1C[C@@H](C)N[C@@H](C)C1` [Example 29, 3-(4-(Dimethylamino)-1-((2-((R)-1-((3S,5R)-3,5-dimethylpiperazin-1-yl)butyl)quinazolin-6-yl)methyl)piperidin-4-yl)phenol], the values for the Ki in test [1] (setting [3]) and in test [2] were 500 to 5000 nM and < 100 nM, respectively.
As for `CCC[C@@H](c1ncc2cc(CN3CCC(c4cccc(O)c4)(N(C)C)CC3)ccc2n1)N1C[C@@H](C)N[C@@H](C)C1` [Example 30, 3-(4-(Dimethylamino)-1-((2-((S)-1-((3S,5R)-3,5-dimethylpiperazin-1-yl)butyl)quinazolin-6-yl)methyl)piperidin-4-yl)phenol], the Ki in test [1] (setting [3]) was > 5000 nM; in test [2], < 100 nM.
Consider `CCCC(c1cc(OC)c2cc(N3CCC(c4ccccc4)(N(C)C)CC3)ccc2n1)N1C[C@@H](C)N[C@@H](C)C1` (stereo partly drawn) [Example 31, 1-(2-(1-((3S,5R)-3,5-Dimethylpiperazin-1-yl)butyl)-4-methoxyquinolin-6-yl)-N,N-dimethyl-4-phenylpiperidin-4-amine], for which the Ki is < 500 nM in test [1] and 100 to 500 nM in test [2] (setting [4]).
For `CCCC(c1cnc2cc(N3CCC(c4cccc(O)c4)(N(C)C)CC3)ccc2n1)N1C[C@@H](C)N[C@@H](C)C1` (stereo partly drawn) [Example 32, 3-(4-(Dimethylamino)-1-(2-(1-((3S,5R)-3,5-dimethylpiperazin-1-yl)butyl)quinoxalin-6-yl)piperidin-4-yl)phenol], the figures for the Ki in test [1] (setting [3]) and in test [2] were 500 to 5000 nM and < 100 nM, respectively.
Regarding `CCCC(c1cnc2ccc(N3CCC(c4cccc(O)c4)(N(C)C)CC3)cc2n1)N1C[C@@H](C)N[C@@H](C)C1` (stereo partly drawn) [Example 33, 3-(4-(Dimethylamino)-1-(3-(1-((3S,5R)-3,5-dimethylpiperazin-1-yl)butyl)quinoxalin-6-yl)piperidin-4-yl)phenol], the Ki was < 500 nM in test [1] and < 100 nM in test [2] (setting [4]).
As to `CCC[C@H](c1cnc2ccc(N3CCC(c4cccc(O)c4)(N(C)C)CC3)cc2n1)N1C[C@@H](C)N[C@@H](C)C1` [Example 34, 3-(4-(Dimethylamino)-1-(3-((R)-1-((3S,5R)-3,5-dimethylpiperazin-1-yl)butyl)quinoxalin-6-yl)piperidin-4-yl)phenol], the Ki in test [1] was < 500 nM; in test [2] (setting [4]), < 100 nM.
Consider `CCC[C@@H](c1cnc2ccc(N3CCC(c4cccc(O)c4)(N(C)C)CC3)cc2n1)N1C[C@@H](C)N[C@@H](C)C1` [Example 35, 3-(4-(Dimethylamino)-1-(3-((S)-1-((3S,5R)-3,5-dimethylpiperazin-1-yl)butyl)quinoxalin-6-yl)piperidin-4-yl)phenol], for which the figures for the Ki in test [1] (setting [3]) and in test [2] were 500 to 5000 nM and 100 to 500 nM, respectively.
For `CCCC(c1cnc2ccc(CN3CCC(c4cccc(O)c4)(N(C)C)CC3)cc2n1)N1C[C@@H](C)N[C@@H](C)C1` (stereo partly drawn) [Example 37, 3-(4-(Dimethylamino)-1-((3-(1-((3S,5R)-3,5-dimethylpiperazin-1-yl)butyl)quinoxalin-6-yl)methyl)piperidin-4-yl)phenol], the Ki in test [1] is < 500 nM; in test [2] (setting [4]) it was < 100 nM.
With `CCC[C@H](c1cnc2ccc(CN3CCC(c4cccc(O)c4)(N(C)C)CC3)cc2n1)N1C[C@@H](C)N[C@@H](C)C1` [Example 38, 3-(4-(Dimethylamino)-1-((3-((R)-1-((3S,5R)-3,5-dimethylpiperazin-1-yl)butyl)quinoxalin-6-yl)methyl)piperidin-4-yl)phenol], the Ki in test [1] is < 500 nM; in test [2] (setting [4]) it was < 100 nM.
Consider `CCC[C@@H](c1cnc2ccc(CN3CCC(c4cccc(O)c4)(N(C)C)CC3)cc2n1)N1C[C@@H](C)N[C@@H](C)C1` [Example 39, 3-(4-(Dimethylamino)-1-((3-((S)-1-((3S,5R)-3,5-dimethylpiperazin-1-yl)butyl)quinoxalin-6-yl)methyl)piperidin-4-yl)phenol], for which the results for the Ki in test [1] (setting [3]) and in test [2] were 500 to 5000 nM and < 100 nM, respectively.
Consider `CCCC(c1nc2ccc(CN3CCC(c4cccc(O)c4)(N(C)C)CC3)cc2nc1CC)N1C[C@@H](C)N[C@@H](C)C1` (stereo partly drawn) [Example 40, 3-(4-(Dimethylamino)-1-((2-(1-((3S,5R)-3,5-dimethylpiperazin-1-yl)butyl)-3-ethylquinoxalin-6-yl)methyl)piperidin-4-yl)phenol], for which the Ki in test [1] was < 500 nM; in test [2] (setting [4]) it was < 100 nM.
The like results for `CCC[C@H](c1nc2ccc(CN3CCC(c4cccc(O)c4)(N(C)C)CC3)cc2nc1CC)N1C[C@@H](C)N[C@@H](C)C1` [Example 41, 3-(4-(Dimethylamino)-1-((2-((R)-1-((3S,5R)-3,5-dimethylpiperazin-1-yl)butyl)-3-ethylquinoxalin-6-yl)methyl)piperidin-4-yl)phenol] were, in that order, < 500 nM and < 100 nM.
In the case of `CCC[C@@H](c1nc2ccc(CN3CCC(c4cccc(O)c4)(N(C)C)CC3)cc2nc1CC)N1C[C@@H](C)N[C@@H](C)C1` [Example 42, 3-(4-(Dimethylamino)-1-((2-((S)-1-((3S,5R)-3,5-dimethylpiperazin-1-yl)butyl)-3-ethylquinoxalin-6-yl)methyl)piperidin-4-yl)phenol], the Ki in test [1] (setting [3]) is 500 to 5000 nM; in test [2], < 100 nM.
